Assay results published in patent publication US7537787B2, “Method for modulating glutamate and/or aspartate release in a central nervous system locus” (Indiana University Research and Technology Corporation, priority 1996, dated 2009).

Columns and labels:
[1] = test system: rat hippocampal slices (glutamate release); assay: TRH inhibition of [K+]-stimulated glutamate release from superfused hippocampal slices in vitro; assay type: cell-based; conditions: for glutamate at 10 min. post stimulation: control 4.37±1.29; for peak 50 mM [K+]-stimulated glutamate release: control 48.05±8.59
Description: TRH INHIBITION OF [K^+]-STIMULATED GLUTAMATE RELEASE FROM HIPPOCAMPAL SLICES IN VITRO. Enhanced excitatory amino acid release is suspected in pathways associated with seizures and excitotoxicity. In this regard, superfused hippocampal slices were used to investigate the hypothesis that TRH could inhibit glutamate release in vitro. Rat hippocampi were removed and sliced transversely (500 μm) under low magnification. Slices were weighed, washed in cold saline, transferred to individual tissue chambers floated in a 37° C. water bath and were equilibrated in oxygenated (95% O2/5% CO2), (37° C.) Kreb's buffer (KRB) for 120 min. (0.5 ml/min.). Slice chambers were then superfused 10 min. with KRB (control), or KRB containing 10 μM, 1 μM, or 0.1 μM TRH respectively, prior to 5 min. stimulation with modified KRB (50 mM [K^+]±TRH). Fractions (1 min.) were collected during the 5 min. stimulation and for an additional 10 min. (0.5 ml/min.) thereafter, and analyzed for glutamate by HPLC.

[2] = test system: Gαq/11 G proteins (TRH receptor); conditions: sustained TRH exposure (16 hr.) to its receptor; cited from earlier work

With `NC(=O)[C@@H]1CCCN1C(=O)[C@H](Cc1cnc[nH]1)NC(=O)[C@@H]1CCC(=O)N1` [TRH, Thyrotropin-releasing hormone] the “glutamate at 10 min. post stimulation” value ([1]; 0.1 μM TRH) was 1.54±0.43 μM/g/fraction, the “peak 50 mM [K+]-stimulated glutamate release” value (“peak 50 mM” for short) ([1]; 0.1 μM TRH) was 1.38±0.28 μM/g/fraction and the “glutamate at 10 min. post stimulation” value ([1]; 1 μM TRH) was 1.11±0.26 μM/g/fraction. The “peak 50 mM” value ([1]; 1 μM TRH) was 1.54±0.33 μM/g/fraction, the “glutamate at 10 min. post stimulation” value ([1]; 10 μM TRH) was 1.35±0.48 μM/g/fraction and the “peak 50 mM” value ([1]; 10 μM TRH) was 2.35±0.50 μM/g/fraction. For the same molecule, the “glutamate release by 50 mM [K+]-stimulation given 15 min. later” value ([1]; 5 min. perfusion with KRB+10 μM TRH, p<0.05, FIG. 6) was “significantly (p<0.05) blocked” and the “reduction of Gαq/11 G proteins” value [2] was 20-70%.
